# Data reported in article PMC6421539, “Discovery of Soft-Drug Topical Tool Modulators of Sphingosine-1-phosphate Receptor 1 (S1PR1)” (ACS Medicinal Chemistry Letters, 2019).
# Entries after “also recorded” stand apart in the source; their conditions may differ. Read-outs that look alike come from different tables or passages of the source.
# Experiments:
# [1] = Chemical stability in DMSO solution; type: physicochemical; conditions: for stability (% decrease in purity): Table 2, stored in DMSO solution for 28 days; for stability (% decrease in purity) / stability (% decrease): n = 1; for isomerization / hydrolysis / chemical instability in DMSO solution (in words): 28 days; for stability (% decrease): Table 3, % loss in purity when stored in DMSO solution for 28 days
# Text: Although several compounds shown in Table 2 satisfy the rapid clearance requirements of a soft drug and retain primary activity, none were suitable for progression into in vivo studies due to chemical stability liabilities. […] The instability in solution represented a major development hurdle as topical drugs are usually stored in solution or suspensions (cream, ointment, paste, lotion, or gels), rather than in solid form, as is the case for oral drugs. We turned our attention to identifying the impurity and preventing its formation.
# Decomposition studies used ^1H NMR to monitor the increase in the acetic acid methyl group peak over 28 days (see Supporting Information). […] However, the chemical stability was poor when heteroatoms were alpha to the carbonyl of the acetate group 10d,e, and these compound degraded on standing within 24 h, preventing full characterization.
# [2] = CHI logD by reverse-phase HPLC; type: physicochemical; conditions: compared to 4a
# [3] = Human liver hepatocyte stability, intrinsic clearance; type: in vitro ADME
# Protocol: the exponential decay and consequently the rate constant (k) from the ratio of peak area of test compound to internal standard at each timepoint. The rate of intrinsic clearance (CLi) of each test compound was then calculated using the following calculation:
# CLi (mL/min/g liver) = k x V x Microsomal protein yield
# Where V (mL/mg protein) is the incubation volume/mg protein added and microsomal protein yield is taken as 52.5 mg protein per g liver. Verapamil (0.5 μM) was used as a positive control to confirm acceptable assay performance. Experiments were performed using a single timecourse experiment.
# All values reported correspond to n of 1.
# Human Liver Hepatocyte (HLH) stability experiments
# Cryopreserved vials of human cryopreserved hepatocytes, supplied by Life Technologies, were thawed according to manufacturer’s instructions and cells resuspended in Williams Medium E (WME) containing cell maintenance supplement pack (CM4000, Life Technologies). Hepatocytes were incubated in suspension (0.5 million cells/mL) in 48 well non-collagen coated cell culture plates for 10 minutes at 37 °C, 5% CO 2. […] The response (area ratio of test compound to internal standard) was plotted against time using an exponential decay model and rate of disappearance calculated. […]
# The half life (T½) of each test compound was determined using the following equation: […]
# [4] = NMR study of isomerisation after incubation in DMSO-d6 for 6 months; type: physicochemical; conditions: 1H NMR integration
# Text: The NOESY spectrum of the mixture indicated no changes in the arrangement of the imine (no correlation was observed between H^11–H^19 or H^11′–H^19′).
# [5] = Metabolite identification in human hepatocytes; type: in vitro ADME; conditions: n = 1
# Text: (§1) Based on the stability of (Z,Z)-9k in DMSO over 28 days (Table 2), it is likely this hydrolysis is enzymatically driven. We then performed metabolite identification studies using (Z,Z)-9k in human hepatocytes to confirm the routes of clearance of our S1PR1 modulators.
# [6] = Topical pharmacokinetic experiment in mice; type: in vivo; conditions: for Mean concentration in blood: female Balb/c mice, topical 10a 1% w/v, n=3, LLoQ = 1 ng/mL, scaled LLoQ 10 ng/mL; for concentration at 2 h / concentration at 8 h: female, Balb/c, mouse, 22.5 µL of 1% w/v 10a; for concentration at 2 h / concentration at 8 h / concentration in blood: mice, topical 22.5 μL of 1% 10a in propylene glycol/ethanol 7/3
# [7] = Glutathione trapping experiment in human liver microsomes; type: in vitro ADME; conditions: 10 µM, 90 minutes
# Protocol: Concentration (ng/mL) Scaled concentration (ng/mL) Mean concentration […]
# Mouse 1 Mouse 2 Mouse 3 Mouse 1 Mouse 2 Mouse 3
# 2h-post application < LLoQ < LLoQ < LLoQ < LLoQ < LLoQ < LLoQ < LLoQ […]
# Mouse 4 Mouse 5 Mouse 6 Mouse 4 Mouse 5 Mouse 6
# 8h-post application < LLoQ < LLoQ < LLoQ < LLoQ < LLoQ < LLoQ < LLoQ […]
# Scaled LLoQ = dilution factor * LLoQ = 10*1 = 10 ng/mL
# Skin concentrations for 10a
# Test compound (10 µM) was incubated with 0.5 mg/mL human liver microsomes (Mixed Gender, Life Technologies) in 50 mM potassium phosphate buffer, pH 7.4 in the presence of either NADPH (8mg/mL) alone, glutathione alone or NADPH plus glutathione. Reactions are initiated by addition of 5 µL of 1 mM test compound (final concentration 10 µM, 1% solvent). Immediately, an aliquot (100 µL) of the incubation mixture was removed and mixed with acetonitrile (200 µL) to stop the reaction. A further 100 µL aliquot is removed at 90 minutes. After addition of 100 µL of water, the samples were centrifuged to sediment precipitated protein and the plates then sealed prior to analysis using a Xevo QTof Quadrupole Time-of-Flight Mass Spectrometer (Waters corporation, USA). Detection of metabolites is performed by analysis with MetabolynxXS and by manual data
# (1 picture or pasted object on this page, not shown here)
# [8] = Metabolite identification in human skin S9 fraction; type: in vitro ADME; conditions: incubation with human skin S9 fraction; n = 1
# Text: as §1
# [9] = design: method as in PMID 20089952; conditions: 0.5 mg/day; cited from earlier work
structure (smiles),measurement,setting,value
CCC/N=C1\S/C(=C\c2ccc(O)c(Cl)c2)C(=O)N1c1ccccc1C [Compound 4a],stability (% decrease in purity),[1],6%
CCC/N=C1\S/C(=C\c2ccc(O)c(Cl)c2)C(=O)N1C1CCN(C)C(=O)C1 (stereo not drawn) [Compound 4f],reduction in CHIlogD,[2],3 log units
CCC/N=C1\S/C(=C\c2ccc(O)c(Cl)c2)C(=O)N1c1ccccc1O [Compound 4h],reduction in CHIlogD,[2],1.1 log units
CCC/N=C1\S/C(=C\c2ccc(O)c(Br)c2)C(=O)N1c1ccccc1C [Compound 9f],stability (% decrease in purity),[1],16%
CCC/N=C1\S/C(=C\c2ccc(O)c(C(F)(F)F)c2)C(=O)N1c1ccccc1C [Compound 9g],stability (% decrease in purity),[1],10%
CCC/N=C1\S/C(=C\c2ccc(O)c(C#N)c2)C(=O)N1c1ccccc1C [Compound 9h],H Heps Cl (intrinsic clearance in human liver hepatocytes),"[3]; 0.5 μM test compound, n = 1",<0.5 mL/min/g
same,stability (% decrease in purity),[1],20%
same,impurity (E isomer) share of the mixture,[4],32%
CCC/N=C1\S/C(=C\c2ccc(O)cn2)C(=O)N1c1ccccc1C [Compound 9i],stability (% decrease in purity),[1],4%
CCC/N=C1\S/C(=C\c2ccc(O)cc2)C(=O)N1c1ccccc1C [Compound 9j],isomerization / hydrolysis / chemical instability in DMSO solution (in words),[1],stable over a 28-day period
same,stability (% decrease in purity),[1],0%
CCC/N=C1\S/C(=C\c2ccc(O)c(C)c2)C(=O)N1c1ccccc1C [Compound 9k],hepatic clearance as % liver blood flow,"[3]; corresponds to intrinsic clearance 31 mL/min/g, if good in vitro to in vivo correlation",97 % liver blood flow
same,stability (% decrease in purity),[1],3%
same,metabolites identified,[5],"glucuronide conjugation product, hydroxylation products, and hydroxylation with sulfation metabolites"
same,Mean concentration in blood,[6]; 2h-post application,< LLoQ
same,Mean concentration in blood,[6]; 8h-post application,< LLoQ
same,concentration at 2 h,"[6]; skin, 2 h, read-out: concentration in the skin",134 µM
same,concentration at 8 h,"[6]; skin, 8 h, read-out: concentration in the skin",101 µM
same,concentration in blood,[6]; 2 h,LLoQ
same,concentration in blood,[6]; 8 h,LLoQ
CCC/N=C1\S/C(=C\c2ccc(O)c(C(C)C)c2)C(=O)N1c1ccccc1C [Compound 9l],stability (% decrease in purity),[1],3%
CCC/N=C1\S/C(=C\c2ccc(OC(C)=O)c(C)c2)C(=O)N1c1ccccc1C [Compound 10a],isomerization / hydrolysis / chemical instability in DMSO solution (in words),[1],did not isomerize; also recorded: no hydrolysis or isomerization
same,stability (% decrease),[1],0%
same,Mean concentration in blood,[6]; 2h-post application,< LLoQ
same,Mean concentration in blood,[6]; 8h-post application,< LLoQ
same,concentration at 2 h,"[6]; whole blood, 2 h, read-out: concentrations in blood",8.8 µM
same,concentration at 8 h,"[6]; whole blood, 8 h, read-out: concentrations in blood",4.9 µM
same,concentration in blood,[6]; 2 h,LLoQ
same,concentration in blood,[6]; 8 h,LLoQ
same,glutathione adducts or derivatives,[7],no evidence of glutathione adducts or derivatives was observed
same,metabolites identified,[8],"expected phenol (Z,Z)-9k was obtained after hydrolysis of the ester group: no other metabolites were observed"
CCC/N=C1\S/C(=C\c2ccc(OC(C)=O)c(Br)c2)C(=O)N1c1ccccc1C [Compound 10b],stability (% decrease),[1],6.3%
CCC/N=C1\S/C(=C\c2ccc(OC(C)=O)c(C(F)(F)F)c2)C(=O)N1c1ccccc1C [Compound 10c],stability (% decrease),[1],1.4%
CCC/N=C1\S/C(=C\c2ccc(OC(=O)COC)c(C)c2)C(=O)N1c1ccccc1C [Compound 10d],time within which compound degraded on standing,[1]; heteroatom alpha to the carbonyl of the acetate group,≤ 24 h
CCC/N=C1\S/C(=C\c2ccc(OC(=O)CCO)c(C)c2)C(=O)N1c1ccccc1C [Compound 10f],isomerization / hydrolysis / chemical instability in DMSO solution (in words),[1],did not isomerize; also recorded: instability was not an issue
same,stability (% decrease),[1],0%
CCC/N=C1\S/C(=C\c2ccc(OC(=O)CCOC)c(C)c2)C(=O)N1c1ccccc1C [Compound 10g],isomerization / hydrolysis / chemical instability in DMSO solution (in words),[1],instability was not an issue
CCCCCCCCc1ccc(CCC(N)(CO)CO)cc1 [fingolimod],steady state systemic concentration Cmax,[9],3.1 ng/mL
"CCC/N=C1\S/C(=C\c2ccc(OC[C@H](O)CO)c(Cl)c2)C(=O)N1c1ccccc1C [ponesimod, reference compound]",stability (% decrease),[1],0%
